# Laboratory results published in US20260242419A1, “A CYCLIC PEPTIDE FOR TRAPPING INTERLEUKIN-1 BETA” (Merck Sharp & Dohme LLC, priority 2023, published 2026).
# Starred links: 1 amine or outer side, 2 acyl side, 3 side chain; linkers in the order of their positions; H or OH if unused. Non-standard residues stand in square brackets, D forms with d. Residues, ends and D or L forms follow the SMILES beside them. Phe(4-(5-CO2H-2-pyrimidyl)) = N[C@@H](Cc1ccc(-c2ncc(C(=O)O)cn2)cc1)C(=O)O; Phe(4-(4-Ac-piperazinyl)) = CC(=O)N1CCN(c2ccc(C[C@H](N)C(=O)O)cc2)CC1; Trp(4-Cl)(βS-Me) = C[C@@H](c1c[nH]c2cccc(Cl)c12)[C@H](N)C(=O)O; dPro(4R-(4-pyridylmethyl)) = O=C(O)[C@H]1C[C@@H](Cc2ccncc2)CN1; Trp(βS-Me,4-F) = C[C@@H](c1c[nH]c2cccc(F)c12)[C@H](N)C(=O)O; Bip(4'-COOH) = N[C@@H](Cc1ccc(-c2ccc(C(=O)O)cc2)cc1)C(=O)O; Phe(2-Cl,4-COOH) = N[C@@H](Cc1ccc(C(=O)O)cc1Cl)C(=O)O; 1Nal(3S-Me) = C[C@@H](c1cccc2ccccc12)[C@H](N)C(=O)O; X13 = O=C(O)c1ccc(C[C@H](N[*:1])C(=O)[*:2])cc1Cl; Ala(pyrimidin-5-yl) = N[C@@H](Cc1cncnc1)C(=O)O; Phe(4-COOH) = N[C@@H](Cc1ccc(C(=O)O)cc1)C(=O)O; Pro(cis-4-F) = O=C(O)[C@@H]1C[C@H](F)CN1; Ala(4-THP) = N[C@@H](CC1CCOCC1)C(=O)O; AEF = NCCOc1ccc(C[C@H](N)C(=O)O)cc1; d(αMeD) = C[C@@](N)(CC(=O)O)C(=O)O; 4Pal = N[C@@H](Cc1ccncc1)C(=O)O; aThr = C[C@H](O)[C@H](N)C(=O)O; d(αMeS) = C[C@@](N)(CO)C(=O)O; Dab = NCC[C@H](N)C(=O)O; Aib = CC(C)(N)C(=O)O
# Molecular target: T1, IL-1β (Homo sapiens, UniProt P01584)
# T1 construct: purchased BioLegend 579404
# Assay: IL-6 assay in MRC5 cells: inhibition of IL-1β induced IL-6 secretion (AlphaLISA)
# Format: cell-based
# Conditions: inhibition of IL-1β induced IL-6 secretion in MRC5 cells; read-out: MRC5 IC50
# Method in brief: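 Compound was pre-incubated 1 h at ambient temperature with recombinant human IL-1β at 2λ EC80 before adding human lung fibroblast MRC5 cells (3000/well) in EMEM with 0.025% BSA. After overnight culture at 37 °C, 5% CO2, secreted IL-6 in conditioned medium was measured by AlphaLISA; IC50 from 4-parameter logistic fits.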
# T1 sequence (P01584 117-269): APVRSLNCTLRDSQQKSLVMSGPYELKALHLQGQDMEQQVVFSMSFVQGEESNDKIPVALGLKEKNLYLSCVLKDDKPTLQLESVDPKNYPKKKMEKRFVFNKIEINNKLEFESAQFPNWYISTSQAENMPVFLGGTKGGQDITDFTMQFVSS
row,SMILES,IC50 [nM]
1,C[C@H](O)[C@@H]1NC(=O)[C@@](C)(CC(=O)O)NC(=O)[C@H](Cc2c[nH]c3ccccc23)NC(=O)[C@H](CO)NC(=O)C(C)(C)NC(=O)[C@H]([C@@H](C)c2cccc3ccccc23)NC(=O)[C@@H]2C[C@H](F)CN2C(=O)CNC(=O)[C@H](Cc2ccc(C(=O)O)cc2)NC(=O)[C@H](Cc2ccncc2)NC(=O)[C@H](Cc2ccc(-c3ccc(C(=O)O)cc3)cc2)NC(=O)[C@H]2C[C@@H](Cc3ccncc3)CN2C(=O)CNC(=O)[C@H](CCN)NC(=O)[C@H](CCC(N)=O)NC1=O [Example 357] (cyclo([Bip(4'-COOH)][4Pal][Phe(4-COOH)]G[Pro(cis-4-F)][1Nal(3S-Me)][Aib]SW[d(αMeD)][aThr]Q[Dab]G[dPro(4R-(4-pyridylmethyl))])),0.017
2,"C[C@@H](c1cccc2ccccc12)[C@@H]1NC(=O)[C@@H]2C[C@H](F)CN2C(=O)CNC(=O)[C@H](Cc2ccc(C(=O)O)cc2Cl)NC(=O)[C@H](Cc2ccncc2)NC(=O)[C@H](Cc2ccc(-c3ncc(C(=O)O)cn3)cc2)NC(=O)[C@H]2C[C@@H](Cc3ccncc3)CN2C(=O)CNC(=O)[C@H](CCN)NC(=O)[C@H](CCC(N)=O)NC(=O)[C@H](CC2CCOCC2)NC(=O)[C@@](C)(CC(=O)O)NC(=O)[C@H](Cc2c[nH]c3ccccc23)NC(=O)[C@H](CO)NC(=O)C(C)(C)NC1=O [Example 360] (cyclo([Phe(4-(5-CO2H-2-pyrimidyl))][4Pal][Phe(2-Cl,4-COOH)]G[Pro(cis-4-F)][1Nal(3S-Me)][Aib]SW[d(αMeD)][Ala(4-THP)]Q[Dab]G[dPro(4R-(4-pyridylmethyl))]))",0.019
3,"C[C@@H](c1c[nH]c2cccc(F)c12)[C@@H]1NC(=O)[C@@H]2C[C@H](F)CN2C(=O)CNC(=O)[C@H](Cc2ccc(C(=O)O)c(Cl)c2)NC(=O)[C@H](Cc2ccncc2)NC(=O)[C@H](Cc2ccc(-c3ncc(C(=O)O)cn3)cc2)NC(=O)[C@H]2C[C@@H](Cc3ccncc3)CN2C(=O)CNC(=O)[C@H](CCN)NC(=O)[C@H](CCC(N)=O)NC(=O)[C@H](CC2CCOCC2)NC(=O)[C@@](C)(CC(=O)O)NC(=O)[C@H](Cc2c[nH]c3ccccc23)NC(=O)[C@H](CO)NC(=O)C(C)(C)NC1=O [Example 361] (cyclo([Phe(4-(5-CO2H-2-pyrimidyl))][4Pal][X13]G[Pro(cis-4-F)][Trp(βS-Me,4-F)][Aib]SW[d(αMeD)][Ala(4-THP)]Q[Dab]G[dPro(4R-(4-pyridylmethyl))]))",0.022
4,CC(=O)NCCOc1ccc(C[C@@H]2NC(=O)[C@H]3C[C@@H](Cc4ccncc4)CN3C(=O)CNC(=O)[C@H](CCN)NC(=O)[C@H](CCC(N)=O)NC(=O)[C@H](CC3CCOCC3)NC(=O)[C@@](C)(CC(=O)O)NC(=O)[C@H](Cc3c[nH]c4ccccc34)NC(=O)[C@H](CO)NC(=O)C(C)(C)NC(=O)[C@H]([C@@H](C)c3c[nH]c4cccc(Cl)c34)NC(=O)[C@@H]3C[C@H](F)CN3C(=O)CNC(=O)[C@H](Cc3ccc(C(=O)O)cc3)NC(=O)[C@H](Cc3ccncc3)NC2=O)cc1 [Example 362] (cyclo([AEF](Ac)[4Pal][Phe(4-COOH)]G[Pro(cis-4-F)][Trp(4-Cl)(βS-Me)][Aib]SW[d(αMeD)][Ala(4-THP)]Q[Dab]G[dPro(4R-(4-pyridylmethyl))])),0.023
5,"CC(=O)NCCOc1ccc(C[C@@H]2NC(=O)[C@H]3C[C@@H](Cc4ccncc4)CN3C(=O)CNC(=O)[C@H](CCN)NC(=O)[C@H](CCC(N)=O)NC(=O)[C@H](CC3CCOCC3)NC(=O)[C@@](C)(CC(=O)O)NC(=O)[C@H](Cc3c[nH]c4ccccc34)NC(=O)[C@H](CO)NC(=O)C(C)(C)NC(=O)[C@H]([C@@H](C)c3cccc4ccccc34)NC(=O)[C@@H]3C[C@H](F)CN3C(=O)CNC(=O)[C@H](Cc3ccc(C(=O)O)cc3Cl)NC(=O)[C@H](Cc3ccncc3)NC2=O)cc1 [Example 363] (cyclo([AEF](Ac)[4Pal][Phe(2-Cl,4-COOH)]G[Pro(cis-4-F)][1Nal(3S-Me)][Aib]SW[d(αMeD)][Ala(4-THP)]Q[Dab]G[dPro(4R-(4-pyridylmethyl))]))",0.021
6,"CC(=O)N1CCN(c2ccc(C[C@@H]3NC(=O)[C@H]4C[C@@H](Cc5ccncc5)CN4C(=O)CNC(=O)[C@H](CCN)NC(=O)[C@H](CCC(N)=O)NC(=O)[C@H](Cc4cncnc4)NC(=O)C(C)(C)NC(=O)[C@H](Cc4c[nH]c5ccccc45)NC(=O)[C@H](CO)NC(=O)C(C)(C)NC(=O)[C@H]([C@@H](C)c4c[nH]c5cccc(F)c45)NC(=O)[C@@H]4C[C@H](F)CN4C(=O)CNC(=O)[C@H](Cc4ccc(C(=O)O)cc4Cl)NC(=O)[C@H](Cc4ccncc4)NC3=O)cc2)CC1 [Example 365] (cyclo([Phe(4-(4-Ac-piperazinyl))][4Pal][Phe(2-Cl,4-COOH)]G[Pro(cis-4-F)][Trp(βS-Me,4-F)][Aib]SW[Aib][Ala(pyrimidin-5-yl)]Q[Dab]G[dPro(4R-(4-pyridylmethyl))]))",0.023
7,"CC(=O)N1CCN(c2ccc(C[C@@H]3NC(=O)[C@H]4C[C@@H](Cc5ccncc5)CN4C(=O)CNC(=O)[C@H](CCN)NC(=O)[C@H](CCC(N)=O)NC(=O)[C@H](Cc4cncnc4)NC(=O)C(C)(C)NC(=O)[C@H](Cc4c[nH]c5ccccc45)NC(=O)[C@H](CO)NC(=O)C(C)(C)NC(=O)[C@H]([C@@H](C)c4c[nH]c5cccc(F)c45)NC(=O)[C@@H]4C[C@H](F)CN4C(=O)CNC(=O)[C@H](Cc4ccc(C(=O)O)cc4)NC(=O)[C@H](Cc4ccncc4)NC3=O)cc2)CC1 [Example 366] (cyclo([Phe(4-(4-Ac-piperazinyl))][4Pal][Phe(4-COOH)]G[Pro(cis-4-F)][Trp(βS-Me,4-F)][Aib]SW[Aib][Ala(pyrimidin-5-yl)]Q[Dab]G[dPro(4R-(4-pyridylmethyl))]))",0.021
8,"CC(=O)NCCOc1ccc(C[C@@H]2NC(=O)[C@H]3C[C@@H](Cc4ccncc4)CN3C(=O)CNC(=O)[C@H](CCN)NC(=O)[C@H](CCC(N)=O)NC(=O)[C@H](Cc3cncnc3)NC(=O)C(C)(C)NC(=O)[C@H](Cc3c[nH]c4ccccc34)NC(=O)[C@H](CO)NC(=O)C(C)(C)NC(=O)[C@H]([C@@H](C)c3c[nH]c4cccc(F)c34)NC(=O)[C@@H]3C[C@H](F)CN3C(=O)CNC(=O)[C@H](Cc3ccc(C(=O)O)cc3Cl)NC(=O)[C@H](Cc3ccncc3)NC2=O)cc1 [Example 367] (cyclo([AEF](Ac)[4Pal][Phe(2-Cl,4-COOH)]G[Pro(cis-4-F)][Trp(βS-Me,4-F)][Aib]SW[Aib][Ala(pyrimidin-5-yl)]Q[Dab]G[dPro(4R-(4-pyridylmethyl))]))",0.017
9,"CC(=O)NCCOc1ccc(C[C@@H]2NC(=O)[C@H]3C[C@@H](Cc4ccncc4)CN3C(=O)CNC(=O)[C@H](CCN)NC(=O)[C@H](CCC(N)=O)NC(=O)[C@H](Cc3cncnc3)NC(=O)C(C)(C)NC(=O)[C@H](Cc3c[nH]c4ccccc34)NC(=O)[C@H](CO)NC(=O)C(C)(C)NC(=O)[C@H]([C@@H](C)c3c[nH]c4cccc(F)c34)NC(=O)[C@@H]3C[C@H](F)CN3C(=O)CNC(=O)[C@H](Cc3ccc(C(=O)O)cc3)NC(=O)[C@H](Cc3ccncc3)NC2=O)cc1 [Example 368] (cyclo([AEF](Ac)[4Pal][Phe(4-COOH)]G[Pro(cis-4-F)][Trp(βS-Me,4-F)][Aib]SW[Aib][Ala(pyrimidin-5-yl)]Q[Dab]G[dPro(4R-(4-pyridylmethyl))]))",0.022

# These reach a lower IC50. Values come first.
row,IC50 [nM],SMILES
1,0.015,"C[C@@H](c1c[nH]c2cccc(F)c12)[C@@H]1NC(=O)[C@@H]2C[C@H](F)CN2C(=O)CNC(=O)[C@H](Cc2ccc(C(=O)O)cc2)NC(=O)[C@H](Cc2ccncc2)NC(=O)[C@H](Cc2ccc(-c3ccc(C(=O)O)cc3)cc2)NC(=O)[C@H]2C[C@@H](Cc3ccncc3)CN2C(=O)CNC(=O)[C@H](CCN)NC(=O)[C@H](CCC(N)=O)NC(=O)[C@H](CC2CCOCC2)NC(=O)[C@@](C)(CO)NC(=O)[C@H](Cc2c[nH]c3ccccc23)NC(=O)[C@H](CO)NC(=O)C(C)(C)NC1=O [Example 364] (cyclo([Bip(4'-COOH)][4Pal][Phe(4-COOH)]G[Pro(cis-4-F)][Trp(βS-Me,4-F)][Aib]SW[d(αMeS)][Ala(4-THP)]Q[Dab]G[dPro(4R-(4-pyridylmethyl))]))"
2,0.013,C[C@H](O)[C@@H]1NC(=O)[C@@](C)(CC(=O)O)NC(=O)[C@H](Cc2c[nH]c3ccccc23)NC(=O)[C@H](CO)NC(=O)C(C)(C)NC(=O)[C@H]([C@@H](C)c2c[nH]c3cccc(Cl)c23)NC(=O)[C@@H]2C[C@H](F)CN2C(=O)CNC(=O)[C@H](Cc2ccc(C(=O)O)cc2)NC(=O)[C@H](Cc2ccncc2)NC(=O)[C@H](Cc2ccc(-c3ccc(C(=O)O)cc3)cc2)NC(=O)[C@H]2C[C@@H](Cc3ccncc3)CN2C(=O)CNC(=O)[C@H](CCN)NC(=O)[C@H](CCC(N)=O)NC1=O [Example 358] (cyclo([Bip(4'-COOH)][4Pal][Phe(4-COOH)]G[Pro(cis-4-F)][Trp(4-Cl)(βS-Me)][Aib]SW[d(αMeD)][aThr]Q[Dab]G[dPro(4R-(4-pyridylmethyl))]))
3,0.011,"C[C@H](O)[C@@H]1NC(=O)[C@@](C)(CC(=O)O)NC(=O)[C@H](Cc2c[nH]c3ccccc23)NC(=O)[C@H](CO)NC(=O)C(C)(C)NC(=O)[C@H]([C@@H](C)c2c[nH]c3cccc(F)c23)NC(=O)[C@@H]2C[C@H](F)CN2C(=O)CNC(=O)[C@H](Cc2ccc(C(=O)O)cc2Cl)NC(=O)[C@H](Cc2ccncc2)NC(=O)[C@H](Cc2ccc(-c3ccc(C(=O)O)cc3)cc2)NC(=O)[C@H]2C[C@@H](Cc3ccncc3)CN2C(=O)CNC(=O)[C@H](CCN)NC(=O)[C@H](CCC(N)=O)NC1=O [Example 356] (cyclo([Bip(4'-COOH)][4Pal][Phe(2-Cl,4-COOH)]G[Pro(cis-4-F)][Trp(βS-Me,4-F)][Aib]SW[d(αMeD)][aThr]Q[Dab]G[dPro(4R-(4-pyridylmethyl))]))"
4,0.011,"C[C@H](O)[C@@H]1NC(=O)[C@@](C)(CC(=O)O)NC(=O)[C@H](Cc2c[nH]c3ccccc23)NC(=O)[C@H](CO)NC(=O)C(C)(C)NC(=O)[C@H]([C@@H](C)c2c[nH]c3cccc(F)c23)NC(=O)[C@@H]2C[C@H](F)CN2C(=O)CNC(=O)[C@H](Cc2ccc(C(=O)O)cc2)NC(=O)[C@H](Cc2ccncc2)NC(=O)[C@H](Cc2ccc(-c3ccc(C(=O)O)cc3)cc2)NC(=O)[C@H]2C[C@@H](Cc3ccncc3)CN2C(=O)CNC(=O)[C@H](CCN)NC(=O)[C@H](CCC(N)=O)NC1=O [Example 359] (cyclo([Bip(4'-COOH)][4Pal][Phe(4-COOH)]G[Pro(cis-4-F)][Trp(βS-Me,4-F)][Aib]SW[d(αMeD)][aThr]Q[Dab]G[dPro(4R-(4-pyridylmethyl))]))"
